Measurements reported in patent US11524968B2, “Heterocyclic compound as a protein kinase inhibitor” (HK inno.N Corporation, priority 2017, dated 2022).

Target: JAK1 (Homo sapiens (Human), UniProt P23458)
Assay: Analysis of JAK1 activity inhibition ability (ADP-Glo Kinase Assay)
Assay type: biochemical
Conditions: JAK1 enzyme, ADP-Glo luminescence, ATP 250 uM, IRS-itide substrate, 30° C. 40 minutes; read-out: IC50
Summary of the method: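 ADP-Glo luminescence read-out of ADP production, with IC50 taken as the concentration halving JAK1 activity relative to control. Enzyme was incubated 40 min at 30 °C with compound, IRS-itide (40 ng/mL) and ATP (250 uM), concentrations as prepared in pH 7.5 Tris-HCl/MgCl2/BSA/DTT buffer.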

Chain of JAK1 (P23458 whole entry): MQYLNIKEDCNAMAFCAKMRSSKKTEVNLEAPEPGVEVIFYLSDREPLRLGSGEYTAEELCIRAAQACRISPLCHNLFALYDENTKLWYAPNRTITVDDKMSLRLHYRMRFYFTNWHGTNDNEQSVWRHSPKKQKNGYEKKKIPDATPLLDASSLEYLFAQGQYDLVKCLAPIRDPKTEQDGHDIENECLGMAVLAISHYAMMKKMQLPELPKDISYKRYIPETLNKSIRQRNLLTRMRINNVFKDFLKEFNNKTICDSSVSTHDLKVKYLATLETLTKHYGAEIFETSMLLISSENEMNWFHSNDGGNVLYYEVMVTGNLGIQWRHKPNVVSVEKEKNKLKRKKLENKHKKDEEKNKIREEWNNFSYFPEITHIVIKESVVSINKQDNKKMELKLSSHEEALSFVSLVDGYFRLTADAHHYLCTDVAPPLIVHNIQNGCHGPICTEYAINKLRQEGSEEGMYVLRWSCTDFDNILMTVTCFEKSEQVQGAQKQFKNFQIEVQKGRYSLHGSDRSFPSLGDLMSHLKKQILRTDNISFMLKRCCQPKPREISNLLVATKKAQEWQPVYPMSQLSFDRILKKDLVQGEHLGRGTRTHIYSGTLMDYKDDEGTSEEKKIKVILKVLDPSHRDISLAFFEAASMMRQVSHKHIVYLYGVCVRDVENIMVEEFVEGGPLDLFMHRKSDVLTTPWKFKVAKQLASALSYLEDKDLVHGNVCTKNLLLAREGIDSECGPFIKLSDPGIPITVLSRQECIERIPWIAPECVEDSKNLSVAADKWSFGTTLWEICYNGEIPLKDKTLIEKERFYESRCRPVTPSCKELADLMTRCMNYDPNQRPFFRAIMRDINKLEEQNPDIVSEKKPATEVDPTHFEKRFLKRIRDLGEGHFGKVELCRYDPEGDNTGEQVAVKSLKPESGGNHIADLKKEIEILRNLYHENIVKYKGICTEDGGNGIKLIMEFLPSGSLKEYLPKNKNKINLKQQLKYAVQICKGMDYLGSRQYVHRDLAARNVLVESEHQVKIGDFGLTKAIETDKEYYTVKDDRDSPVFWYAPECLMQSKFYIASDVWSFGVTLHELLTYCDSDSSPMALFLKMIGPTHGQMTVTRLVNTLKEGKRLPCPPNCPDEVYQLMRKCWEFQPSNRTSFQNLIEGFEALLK

Compound | IC50 [nM]
CC1CN(C(=O)NCC(F)(F)F)CC=C1c1cc(NC(=O)C2CC2)nc2[nH]ccc12 (stereo not shown) [Example 453, 4-(6-(cyclopropanecarboxamido)-1H-pyrrolo[2,3-b]pyridin-4-yl)-3-methyl-N-(2,2,2-trifluoroethyl)-3,6-dihydropyridine-1 (2H)-carboxamide] | < 20
CCS(=O)(=O)Nc1ccc(-c2nc(Nc3ccccc3)nc3[nH]ccc23)cc1F [Example 719, N-(2-fluoro-4-(2-(phenylamino)-7H-pyrrolo[2,3-d]pyrimidin-4-yl)phenyl)ethanesulfonamide] | 20 to 200
N#CCCC(=O)N1CCC=C(c2cc(NC(=O)C3CC3)nc3[nH]ccc23)C1 [Example 421, N-(4-(1-(3-cyanopropanoyl)-1,2,5,6-tetrahydropyridin-3-yl)-1H-pyrrolo[2,3-b]pyridin-6-yl)cyclopropanecarboxamide] | 20 to 200
O=C(Nc1cc(-c2ccc(OS(=O)(=O)C3CCCCC3)cc2)c2cc[nH]c2n1)C1CC1 [Example 634, 4-(6-(cyclopropanecarboxamido)-1H-pyrrolo[2,3-b]pyridin-4-yl)phenyl cyclohexanesulfonate] | > 200
O=C(Nc1nc(-c2ccc(NS(=O)(=O)c3ccc(Cl)cc3)cc2)c2cc[nH]c2n1)C1CC1 [Example 187, N-(4-(4-((4-chlorophenyl)sulfonamido)phenyl)-7H-pyrrolo[2,3-d]pyrimidin-2-yl)cyclopropanecarboxamide] | 20 to 200
C=CC(=O)N1CC=C(c2cc(NC(=O)C3CC3)nc3[nH]ccc23)CC1 [Example 266, N-(4-(1-acryloyl-1,2,3,6-tetrahydropyridin-4-yl)-1H-pyrrolo[2,3-b]pyridin-6-yl)cyclopropanecarboxamide] | 20 to 200
CC1CN(C(=O)c2ccc(Cl)nc2)CC=C1c1cc(NC(=O)C2CC2)nc2[nH]ccc12 (stereo not shown) [Example 335, N-(4-(1-(6-chloronicotinoyl)-3-methyl-1,2,3,6-tetrahydropyridin-4-yl)-1H-pyrrolo[2,3-b]pyridin-6-yl)cyclopropanecarboxamide] | 20 to 200
O=C(Nc1nc(-c2ccc(CNc3ccc(F)cc3)cc2)c2nc[nH]c2n1)C1CC1 [Example 597, N-(6-(4-(((4-fluorophenyl)amino)methyl)phenyl)-9H-purin-2-yl)cyclopropanecarboxamide] | > 200
O=C(Nc1cc(C2=CCN(C(=O)C3CC(F)(F)C3)CC2)c2cc[nH]c2n1)C1CC1 [Example 260, N-(4-(1-(3,3-difluorocyclobutane-1-carbonyl)-1,2,3,6-tetrahydropyridin-4-yl)-1H-pyrrolo[2,3-b]pyridin-6-yl)cyclopropanecarboxamide] | 20 to 200
CC1CN(C(=O)c2cccnc2Cl)CC=C1c1cc(NC(=O)C2CC2)nc2[nH]ccc12 (stereo not shown) [Example 349, N-(4-(1-(2-chloronicotinoyl)-3-methyl-1,2,3,6-tetrahydropyridin-4-yl)-1H-pyrrolo[2,3-b]pyridin-6-yl)cyclopropanecarboxamide] | 20 to 200
N#CCCCS(=O)(=O)N1CC(CC#N)(N2CC=C(c3cc(NC(=O)C4CC4)nc4[nH]ccc34)CC2)C1 [Example 618, N-(4-(1-(3-(cyanomethyl)-1-((3-cyanopropyl)sulfonyl)azetidin-3-yl)-1,2,3,6-tetrahydropyridin-4-yl)-1H-pyrrolo[2,3-b]pyridin-6-yl)cyclopropanecarboxamide] | < 20
CSc1ccccc1C(=O)N1CC=C(c2cc(NC(=O)C3CC3)nc3[nH]ccc23)C(C)C1 (stereo not shown) [Example 357, N-(4-(3-methyl-1-(2-(methylthio)benzoyl)-1,2,3,6-tetrahydropyridin-4-yl)-1H-pyrrolo[2,3-b]pyridin-6-yl)cyclopropanecarboxamide] | 20 to 200
Cc1cc(NS(=O)(=O)CC2CC2)ccc1-c1cc(NC(=O)C2CC2)nc2[nH]ccc12 [Example 92, N-(4-(4-((cyclopropylmethyl)sulfonamido)-2-methylphenyl)-1H-pyrrolo[2,3-b]pyridin-6-yl)cyclopropanecarboxamide] | 20 to 200
